biological target: T1, 15-hydroxyprostaglandin dehydrogenase [NAD(+)] (Homo sapiens, UniProt P15428); assay: In vitro Assay (5 nM)
T1 sequence (P15428 whole entry): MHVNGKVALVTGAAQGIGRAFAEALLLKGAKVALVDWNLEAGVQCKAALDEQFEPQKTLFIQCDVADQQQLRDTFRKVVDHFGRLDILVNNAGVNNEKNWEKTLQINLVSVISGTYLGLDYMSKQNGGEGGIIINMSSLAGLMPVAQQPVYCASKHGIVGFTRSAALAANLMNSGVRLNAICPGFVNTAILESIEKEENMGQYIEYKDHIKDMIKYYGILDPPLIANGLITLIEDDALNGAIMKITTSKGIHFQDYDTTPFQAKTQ
Method: Each compound for inhibiting enzymatic activity of recombinant 15-PGDH (5 nM) in an in vitro assay.

`CCCC[S+]([O-])c1sc2nc(-c3ccccc3)cnc2c1N` (centres undefined) [US20240043440, Example 27] and `CCCC[S+]([O-])c1sc2nc(-c3nccs3)cc(-c3cn(C)cn3)c2c1N` (centres undefined) [US20240043440, Example 28] are within 1.5-fold of each other in IC50: 1.6 nM for the first, 1.4 nM for the second.

Going from `CCCC[S@@+]([O-])c1sc2nc(-c3nccs3)cc(-c3nccn3CC)c2c1N` [US20240043440, Example 29] to `CCCC[S@+]([O-])c1sc2nc(-c3nccs3)cc(-c3nccn3CC)c2c1N` [US20240043440, Example 30], the IC50 rises from 1.4 nM to 221 nM (160-fold). The first is the more potent here.
